BindingDB's records for patent US20250129027 (Apogee Pharmaceuticals, 2025)

How the values were obtained:
Monoglyceride lipase = molecular target: T1, Monoglyceride lipase (Homo sapiens, UniProt Q99685); assay: In Vitro Inhibition on FAAH and MAGL Activity Assay
T1 sequence (Q99685 whole entry): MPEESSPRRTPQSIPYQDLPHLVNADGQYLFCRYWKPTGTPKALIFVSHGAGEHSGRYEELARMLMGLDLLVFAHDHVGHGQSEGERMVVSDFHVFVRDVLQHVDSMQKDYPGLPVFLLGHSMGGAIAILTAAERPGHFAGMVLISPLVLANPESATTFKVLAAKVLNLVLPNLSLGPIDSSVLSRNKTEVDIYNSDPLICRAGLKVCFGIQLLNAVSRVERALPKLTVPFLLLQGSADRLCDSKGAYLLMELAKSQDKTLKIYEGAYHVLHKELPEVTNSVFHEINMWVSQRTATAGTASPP
Excerpt: (§1) In brief, FAAH hydrolyzes AMC arachidonoyl amide resulting in the release of the fluorescent product, while the inhibitor will inhibit the FAAH activity and thus reduce the fluorescent signal. […] The absorbance of the yellow product can be analyzed using the plate reader.

[1] = molecular target: T2, Fatty-acid amide hydrolase 1 (Homo sapiens, UniProt O00519); assay: as above
T2 sequence (O00519 whole entry): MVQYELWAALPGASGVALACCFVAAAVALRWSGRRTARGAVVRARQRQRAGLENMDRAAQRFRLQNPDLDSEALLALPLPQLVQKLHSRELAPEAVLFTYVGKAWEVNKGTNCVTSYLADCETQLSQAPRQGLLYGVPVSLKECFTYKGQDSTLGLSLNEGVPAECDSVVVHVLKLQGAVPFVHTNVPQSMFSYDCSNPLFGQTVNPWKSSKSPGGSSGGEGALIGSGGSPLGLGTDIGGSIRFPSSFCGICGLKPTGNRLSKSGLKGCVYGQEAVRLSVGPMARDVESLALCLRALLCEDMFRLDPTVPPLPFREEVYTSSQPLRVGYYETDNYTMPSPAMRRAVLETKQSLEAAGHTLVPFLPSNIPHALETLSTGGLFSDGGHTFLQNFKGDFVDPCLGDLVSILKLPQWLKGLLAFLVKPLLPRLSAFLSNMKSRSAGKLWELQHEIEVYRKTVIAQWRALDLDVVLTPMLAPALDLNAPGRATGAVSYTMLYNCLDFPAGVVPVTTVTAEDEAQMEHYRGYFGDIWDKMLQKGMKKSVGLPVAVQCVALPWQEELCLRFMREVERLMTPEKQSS
Excerpt: as §1

Structure (SMILES)	IC50 (Monoglyceride lipase) [µM]	IC50 [1] [nM]
COc1ccc(OC(=O)NC2CCCCC2)cc1-c1cncc(-c2nncs2)c1 [US20250129027, Example 217]	> 10	–
CCCCCCCCNC(=O)Oc1cccc(-c2cncc(C(F)(F)F)c2)c1 [US20250129027, Example 30]	> 10	–
CCCCCCCCNC(=O)Oc1ccc(OC)c(-c2cncc(-c3nnco3)c2)c1 [US20250129027, Example 167]	> 10	–
CCCCCCCCNC(=O)Oc1ccc(OC(F)(F)F)c(-c2cncc(-c3ncco3)c2)c1 [US20250129027, Example 88]	10	–
CCCCCCCCNC(=O)Oc1ccc(OC)c(-c2cncc(-c3ccc[nH]3)c2)c1 [US20250129027, Example 41]	> 10	–
CCCCCCCNC(=O)Oc1cccc(-c2cncc(C(=O)OC)c2)c1 [US20250129027, Example 9]	> 10	–
CCCCCCCCCCCCCCNC(=O)Oc1cccc(-c2cncc(-c3nnco3)c2)c1 [US20250129027, Example 132]	< 10	< 20
CCCCCCCNC(=O)Oc1cccc(-c2cncc(C#N)c2)c1 [US20250129027, Example 26]	> 10	–
CCCCCCNC(=O)Oc1cccc(-c2cncc(-c3nnco3)c2)c1 [US20250129027, Example 128]	> 50	–
CCCCCCCCNC(=O)Oc1cccc(-c2cncc(C#N)c2)c1 [US20250129027, Example 27]	> 10	–
CCCCCCCCNC(=O)Oc1cccc(-c2cncc(-c3ccco3)c2)c1 [US20250129027, Example 47]	10	–
CCCCCCCCNC(=O)Oc1cccc(-c2cncc(C(=O)OC)c2)c1 [US20250129027, Example 10]	> 1	–
CCCCCCCCNC(=O)Oc1cccc(-c2cncc(C(=O)OCC)c2)c1 [US20250129027, Example 3]	> 10	–
CCCCCCCCNC(=O)Oc1cccc(-c2cncc(-c3nnco3)c2)c1 [US20250129027, Example 130]	> 10	–
CCCCCCCCCCCCNC(=O)Oc1cccc(-c2cncc(-c3nnco3)c2)c1 [US20250129027, Example 131]	< 10	–
CCCCCCCCCCCCCCNC(=O)Oc1cccc(-c2cncc(C(=O)NO)c2)c1 [US20250129027, Example 24]	> 10	< 10
CCCCCCCNC(=O)Oc1ccc(OC)c(-c2cncc(-c3nnco3)c2)c1 [US20250129027, Example 166]	> 10	–
CCCCCCCNC(=O)Oc1ccc(O)c(-c2cncc(-c3nnco3)c2)c1 [US20250129027, Example 156]	> 20	–
CN(C)c1ccc(OC(=O)NC2CCCC2)cc1-c1cncc(-c2nnco2)c1 [US20250129027, Example 183]	> 10	> 1000
O=Cc1cncc(-c2cccc(OC(=O)NC3CCCCC3)c2)c1 [US20250129027, Example 19]	> 10	1000
CCCCCCCCNC(=O)Oc1ccc(O)c(-c2cncc(-c3nnco3)c2)c1 [US20250129027, Example 157]	> 10	–
CCCCCNC(=O)Oc1cccc(-c2cncc(C(=O)OC)c2)c1 [US20250129027, Example 8]	> 10	–
CN(C(=O)Oc1cccc(-c2cncc(-c3nnco3)c2)c1)C1CCCCCC1 [US20250129027, Example 144]	> 10	> 1000
CCCCCCCCNC(=O)Oc1ccc(OC)c(-c2cncc(-c3cccs3)c2)c1 [US20250129027, Example 65]	10	–
CCCCCNC(=O)Oc1cccc(-c2cncc(C(=O)OCC)c2)c1 [US20250129027, Example 1]	> 10	–
